{"source": "patent US9732097B2", "about": "“Process for the synthesis of a phosphoinositide 3-kinase inhibitor” (Incyte Corporation, priority 2015, dated 2017)", "key": {"human JAK1": {"biological_target": "human JAK1 (Homo sapiens, UniProt P23458)", "test": "In vitro JAK kinase assay (Example D, HTRF), JAK1", "type": "biochemical", "settings": "1 mM ATP"}, "human JAK2": {"biological_target": "human JAK2 (Homo sapiens (Human), UniProt O60674)", "sequence (O60674 828-1132)": "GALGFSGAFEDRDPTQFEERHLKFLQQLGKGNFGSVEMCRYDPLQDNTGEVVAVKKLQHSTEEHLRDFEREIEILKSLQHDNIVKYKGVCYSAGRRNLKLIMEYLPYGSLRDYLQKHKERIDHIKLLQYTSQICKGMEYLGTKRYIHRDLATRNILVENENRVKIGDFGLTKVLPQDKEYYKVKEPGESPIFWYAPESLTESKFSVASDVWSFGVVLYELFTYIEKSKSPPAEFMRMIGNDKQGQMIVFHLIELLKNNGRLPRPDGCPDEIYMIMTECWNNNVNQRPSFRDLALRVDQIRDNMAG", "test": "In vitro JAK kinase assay (Example D, HTRF), JAK2", "type": "biochemical", "settings": "ratio of JAK2 to JAK1 IC50, 1 mM ATP"}}}
{"smiles": "N#CCC(C1CCN(c2cccc(Cl)n2)C1)n1cc(-c2ncnc3[nH]ccc23)cn1", "note": "(single isomer, unassigned) [compound 3, 3-[1-(6-chloropyridin-2-yl)pyrrolidin-3-yl]-3-[4-(7H-pyrrolo[2,3-d]pyrimidin-4-yl)-1H-pyrazol-1-yl]propanenitrile]", "values": [{"measurement": "IC50", "setting": "human JAK1", "result": "< 10", "unit": "nM"}, {"measurement": "JAK2/JAK1", "setting": "human JAK2", "result": ">10"}]}
{"smiles": "C[C@@H](O)c1nc2cnc3ccsc3c2n1[C@H]1CC[C@H](CC#N)OC1", "note": "[compound 1, ((2R,5S)-5-{2-[(1R)-1-hydroxyethyl]-1H-imidazo[4,5-d]thieno[3,2-b]pyridin-1-yl}tetrahydro-2H-pyran-2-yl)acetonitrile]", "values": [{"measurement": "IC50", "setting": "human JAK1", "result": "< 100", "unit": "nM"}, {"measurement": "JAK2/JAK1", "setting": "human JAK2", "result": ">10"}]}
{"smiles": "N#CCC(C1CCN(c2nc3cccnc3o2)C1)n1cc(-c2ncnc3[nH]ccc23)cn1", "note": "(stereo not drawn) [compound 4, 3-(1-[1,3]oxazolo[5,4-b]pyridin-2-ylpyrrolidin-3-yl)-3-[4-(7H-pyrrolo[2,3-d]pyrimidin-4-yl)-1H-pyrazol-1-yl]propanenitrile]", "values": [{"measurement": "IC50", "setting": "human JAK1", "result": "< 10", "unit": "nM"}, {"measurement": "JAK2/JAK1", "setting": "human JAK2", "result": ">10"}]}
{"smiles": "N#CCC(CN1CCN(C(=O)c2ccc(C#N)cc2F)CC1)n1cc(-c2ncnc3[nH]ccc23)cn1", "note": "(stereo not drawn) [compound 5, 4-[(4-{3-cyano-2-[4-(7H-pyrrolo[2,3-d]pyrimidin-4-yl)-1H-pyrazol-1-yl]propyl}piperazin-1-yl)carbonyl]-3-fluorobenzonitrile]", "values": [{"measurement": "IC50", "setting": "human JAK1", "result": "< 10", "unit": "nM"}, {"measurement": "JAK2/JAK1", "setting": "human JAK2", "result": ">10"}]}
{"smiles": "N#CCC(CN1CCN(C(=O)c2ccc(C#N)cc2F)CC1)n1ccc(-c2ncnc3[nH]ccc23)c1", "note": "(stereo not drawn) [compound 6, 4-[(4-{3-cyano-2-[3-(7H-pyrrolo[2,3-d]pyrimidin-4-yl)-1H-pyrrol-1-yl]propyl}piperazin-1-yl)carbonyl]-3-fluorobenzonitrile]", "values": [{"measurement": "IC50", "setting": "human JAK1", "result": "< 10", "unit": "nM"}, {"measurement": "JAK2/JAK1", "setting": "human JAK2", "result": ">10"}]}
{"smiles": "N#CCC1(n2cc(-c3ncnc4[nH]ccc34)cn2)CN(C2CCN(C(=O)c3ccnc(C(F)(F)F)c3F)CC2)C1", "note": "[compound 7, {1-{1-[3-Fluoro-2-(trifluoromethyl)isonico-tinoyl]piperidin-4-yl}-3-[4-(7H-pyrrolo[2,3-d]pyrimidin-4-yl)-1H-pyrazol-1-yl]azetidin-3-yl}acetonitrile]", "values": [{"measurement": "IC50", "setting": "human JAK1", "result": "< 10", "unit": "nM"}, {"measurement": "JAK2/JAK1", "setting": "human JAK2", "result": ">10"}]}
{"smiles": "N#CCC1(n2cc(-c3ncnc4[nH]ccc34)cn2)CN(C2CCN(C(=O)Nc3ccc(F)cc3C(F)(F)F)CC2)C1", "note": "[compound 8, 4-{3-(Cyanomethyl)-3-[4-(7H-pyrrolo[2,3-d]pyrimidin-4-yl)-1H-pyrazol-1-yl]azetidin-1-yl}-N-[4-fluoro-2-(trifluoromethyl)phenyl] piperidine-1-carboxamide]", "values": [{"measurement": "IC50", "setting": "human JAK1", "result": "< 10", "unit": "nM"}, {"measurement": "JAK2/JAK1", "setting": "human JAK2", "result": ">10"}]}
{"smiles": "N#CCC1(n2cc(-c3ncnc4[nH]ccc34)cn2)CN(C2CCN(C(=O)c3ccnc(C(F)(F)F)n3)CC2)C1", "note": "[compound 9, [3-[4-(7H-pyrrolo[2,3-d]pyrimidin-4-yl)-1H-pyrazol-1-yl]-1-(1-{[2-(trifluoromethyl)pyrim-idin-4-yl]carbonyl}piperidin-4-yl)azetidin-3-yl]acetonitrile]", "values": [{"measurement": "IC50", "setting": "human JAK1", "result": "< 10", "unit": "nM"}, {"measurement": "JAK2/JAK1", "setting": "human JAK2", "result": ">10"}]}
{"smiles": "N#CC[C@]1(n2cc(-c3ncnc4[nH]ccc34)cn2)C[C@H](N2CCN(C(=O)c3ccnc(C(F)(F)F)n3)CC2)C1", "note": "[compound 10, [trans-1-[4-(7H-pyrrolo[2,3-d]pyrimidin-4-yl)-1H-pyrazol-1-yl]-3-(4-{[2-(trifluoromethyl)pyrim-idin-4-yl]carbonyl}piperazin-1-yl)cyclobutyl]acetonitrile]", "values": [{"measurement": "IC50", "setting": "human JAK1", "result": "< 10", "unit": "nM"}, {"measurement": "JAK2/JAK1", "setting": "human JAK2", "result": ">10"}]}
{"smiles": "N#CC[C@]1(n2cc(-c3ncnc4[nH]ccc34)cn2)C[C@H](N2CCC(Oc3cc(CN4CC(O)C4)cc(C(F)(F)F)n3)CC2)C1", "note": "[compound 11, {trans-3-(4-{[4-[(3-hydroxyazetidin-1-yl)methyl]-6-(trifluoromethyl)pyridin-2-yl]oxy}piperidin-1-yl)-1-[4-(7H-pyrrolo[2,3-d]pyrimidin-4-yl)-1H-pyrazol-1-yl]cyclobutyl}acetonitrile]", "values": [{"measurement": "IC50", "setting": "human JAK1", "result": "< 10", "unit": "nM"}, {"measurement": "JAK2/JAK1", "setting": "human JAK2", "result": ">10"}]}
{"smiles": "N#CC[C@]1(n2cc(-c3ncnc4[nH]ccc34)cn2)C[C@H](N2CCC(Oc3cc(CN4CCC[C@H]4CO)cc(C(F)(F)F)n3)CC2)C1", "note": "[compound 12, {trans-3-(4-{[4-{[(2S)-2-(hydroxymethyl)pyrrolidin-1-yl]methyl}-6-(trifluoromethyl)pyridin-2-yl]oxy}piperidin-1-yl)-1-[4-(7H-pyrrolo[2,3-d]pyrimidin-4-yl)-1H-pyrazol-1-yl]cyclobutyl}acetonitrile]", "values": [{"measurement": "IC50", "setting": "human JAK1", "result": "< 10", "unit": "nM"}, {"measurement": "JAK2/JAK1", "setting": "human JAK2", "result": ">10"}]}
{"smiles": "N#CC[C@]1(n2cc(-c3ncnc4[nH]ccc34)cn2)C[C@H](N2CCC(Oc3cc(CN4CCC[C@@H]4CO)cc(C(F)(F)F)n3)CC2)C1", "note": "[compound 13, {trans-3-(4-{[4-{[(2R)-2-(hydroxymethyl)pyrrolidin-1-yl]methyl}-6-(trifluoromethyl)pyridin-2-yl]oxy}piperidin-1-yl)-1-[4-(7H-pyrrolo[2,3-d]pyrimidin-4-yl)-1H-pyrazol-1-yl]cyclobutyl}acetonitrile]", "values": [{"measurement": "IC50", "setting": "human JAK1", "result": "< 10", "unit": "nM"}, {"measurement": "JAK2/JAK1", "setting": "human JAK2", "result": ">10"}]}
{"smiles": "C[C@H](NC(=O)c1cc(F)c(N2CC(CC#N)(n3cc(-c4ncnc5[nH]ccc45)cn3)C2)cc1F)C(F)(F)F", "note": "[compound 16, 4-{3-(cyanomethyl)-3-[4-(7H-pyrrolo[2,3-d]pyrimidin-4-yl)-1H-pyrazol-1-yl]azetidin-1-yl}-2,5-difluoro-N-[(1S)-2,2,2-trifluoro-1-methylethyl]benzamide]", "values": [{"measurement": "IC50", "setting": "human JAK1", "result": "< 10", "unit": "nM"}, {"measurement": "JAK2/JAK1", "setting": "human JAK2", "result": ">10"}]}
{"smiles": "N#CCC1(n2cc(-c3ncnc4[nH]ccc34)cn2)CN([C@H]2CC[C@@H](Oc3cc(CCO)nc(C(F)(F)F)n3)CC2)C1", "note": "[compound 18, {1-(cis-4-{[6-(2-hydroxyethyl)-2-(trifluoromethyl)pyrimidin-4-yl]oxy}cyclohexyl)-3-[4-(7H-pyrrolo[2,3-d]pyrimidin-4-yl)-1H-pyrazol-1-yl]azetidin-3-yl}acetonitrile]", "values": [{"measurement": "IC50", "setting": "human JAK1", "result": "< 10", "unit": "nM"}, {"measurement": "JAK2/JAK1", "setting": "human JAK2", "result": ">10"}]}
{"smiles": "CCNCc1cc(O[C@H]2CC[C@@H](N3CC(CC#N)(n4cc(-c5ncnc6[nH]ccc56)cn4)C3)CC2)nc(C(F)(F)F)c1", "note": "[compound 19, {1-(cis-4-{[4-[(ethylamino)methyl]-6-(trifluoromethyl)pyridin-2-yl]oxy}cyclohexyl)-3-[4-(7H-pyrrolo[2,3-d]pyrimidin-4-yl)-1H-pyrazol-1-yl]azetidin-3-yl]acetonitrile]", "values": [{"measurement": "IC50", "setting": "human JAK1", "result": "< 10", "unit": "nM"}, {"measurement": "JAK2/JAK1", "setting": "human JAK2", "result": ">10"}]}
{"smiles": "N#CCC1(n2cc(-c3ncnc4[nH]ccc34)cn2)CN([C@H]2CC[C@@H](Oc3cc(CN4CC[C@@H](O)C4)cc(C(F)(F)F)n3)CC2)C1", "note": "[compound 21, {1-(cis-4-{[4-{[(3R)-3-hydroxypyrrolidin-1-yl]methyl}-6-(trifluoromethyl)pyridin-2-yl]oxy}cyclohexyl)-3-[4-(7H-pyrrolo[2,3-d]pyrimidin-4-yl)-1H-pyrazol-1-yl]azetidin-3-yl}acetonitrile]", "values": [{"measurement": "IC50", "setting": "human JAK1", "result": "< 10", "unit": "nM"}, {"measurement": "JAK2/JAK1", "setting": "human JAK2", "result": ">10"}]}
{"smiles": "N#CCC1(n2cc(-c3ncnc4[nH]ccc34)cn2)CN([C@H]2CC[C@@H](Oc3cc(CN4CC[C@H](O)C4)cc(C(F)(F)F)n3)CC2)C1", "note": "[compound 22, {1-(cis-4-{[4-{[(3S)-3-hydroxypyrrolidin-1-yl]methyl}-6-(trifluoromethyl)pyridin-2-yl]oxy}cyclohexyl)-3-[4-(7H-pyrrolo[2,3-d]pyrimidin-4-yl)-1H-pyrazol-1-yl]azetidin-3-yl}acetonitrile]", "values": [{"measurement": "IC50", "setting": "human JAK1", "result": "< 10", "unit": "nM"}, {"measurement": "JAK2/JAK1", "setting": "human JAK2", "result": ">10"}]}
{"smiles": "C[C@@H](CO)NCc1cc(OC2CCN([C@H]3C[C@](CC#N)(n4cc(-c5ncnc6[nH]ccc56)cn4)C3)CC2)nc(C(F)(F)F)c1", "note": "[compound 23, {trans-3-(4-{[4-({[(1S)-2-hydroxy-1-methylethyl]amino}methyl)-6-(trifluoromethyl)pyridin-2-yl]oxy}piperidin-1-yl)-1-[4-(7H-pyrrolo[2,3-d]pyrimidin-4-yl)-1H-pyrazol-1-yl]cyclobutyl}acetonitrile]", "values": [{"measurement": "IC50", "setting": "human JAK1", "result": "< 10", "unit": "nM"}, {"measurement": "JAK2/JAK1", "setting": "human JAK2", "result": ">10"}]}
{"smiles": "C[C@@H](O)CNCc1cc(OC2CCN([C@H]3C[C@](CC#N)(n4cc(-c5ncnc6[nH]ccc56)cn4)C3)CC2)nc(C(F)(F)F)c1", "note": "[compound 24, {trans-3-(4-{[4-({[(2R)-2-hydroxypropyl]amino}methyl)-6-(trifluoromethyl)pyridin-2-yl]oxy}piperidin-1-yl)-1-[4-(7H-pyrrolo[2,3-d]pyrimidin-4-yl)-1H-pyrazol-1-yl]cyclobutyl}acetonitrile]", "values": [{"measurement": "IC50", "setting": "human JAK1", "result": "< 10", "unit": "nM"}, {"measurement": "JAK2/JAK1", "setting": "human JAK2", "result": ">10"}]}
{"smiles": "C[C@H](O)CNCc1cc(OC2CCN([C@H]3C[C@](CC#N)(n4cc(-c5ncnc6[nH]ccc56)cn4)C3)CC2)nc(C(F)(F)F)c1", "note": "[compound 25, {trans-3-(4-{[4-({[(2S)-2-hydroxypropyl]amino}methyl)-6-(trifluoromethyl)pyridin-2-yl]oxy}piperidin-1-yl)-1-[4-(7H-pyrrolo[2,3-d]pyrimidin-4-yl)-1H-pyrazol-1-yl]cyclobutyl}acetonitrile]", "values": [{"measurement": "IC50", "setting": "human JAK1", "result": "< 10", "unit": "nM"}, {"measurement": "JAK2/JAK1", "setting": "human JAK2", "result": ">10"}]}
{"smiles": "N#CC[C@]1(n2cc(-c3ncnc4[nH]ccc34)cn2)C[C@H](N2CCC(Oc3cc(CCO)cc(C(F)(F)F)n3)CC2)C1", "note": "[compound 26, {trans-3-(4-{[4-(2-hydroxyethyl)-6-(trifluoromethyl)pyridin-2-yl]oxy}piperidin-1-yl)-1-[4-(7H-pyrrolo[2,3-d]pyrimidin-4-yl)-1H-pyrazol-1-yl]cyclobutyl}acetonitrile]", "values": [{"measurement": "IC50", "setting": "human JAK1", "result": "< 10", "unit": "nM"}, {"measurement": "JAK2/JAK1", "setting": "human JAK2", "result": ">10"}]}
